Data on one molecule can be found in patent US8206983B2, “In vitro methods for the induction and maintenance of plant cell lines as single suspension cells with intact cell walls” (Dow AgroSciences, LLC., priority 2006, dated 2012).

The test system of one data set is NT1 suspension cells. The data set can be described thus: Effects of colchicine on growth of NT1 suspension cells. It is filed as cell-based, Nicotiana tabacum. To be noted: 1 mM. The text has this: BY2 suspension-cultured cells were obtained from Japan tobacco and maintained in LSBY2 medium in a 7 day cycle. Jimsonweed suspension and Pettite Havana tobacco suspensions were initiated from callus initiated at DAS and Xanthi suspensions were procured as a sample from Professor Jack Widholm from UIUC, IL. JT-NT1 suspension cells, obtained from Washington University that are maintained in NT1B medium in 7 day cycle were used only for the pectin degradation enzyme study to separate the cells into single cells. The cells were cultured in shake flasks at 25-28° C. in dark on orbital shakers at 150 rpm. […] The NT-1 cell line is widely used and readily available; though, any tobacco suspension cell line is consistent with the practice of the invention. […]
Cell expansion and separation were observed by light microscopy (with Nomarski and dark field optics). Spherical cells and single cells were counted by using a hemacytometer to determine the degree of cell expansion and separation, respectively. Cell numbers in aggregates were determined by treating with 5% (wt/vol) chromium trioxide for 16 hr and counting cells (Henshaw et. al, 1966). Cell viability was determined by staining cells (Yokoyama et. al, 1997) with fluorescein diacetate (FDA) and propidium iodide (PI) using a fluorescent microscope (Zeiss Photomicroscope). […]

The subject of the next data set is soybean suspension cells. To be noted: cited from earlier work.

Each structure is given as a SMILES string.

Molecule `COc1cc2c(c(OC)c1OC)-c1ccc(OC)c(=O)cc1[C@@H](NC(C)=O)CC2` [Colchicine] gave a reduction in growth in the data set on NT1 suspension cells of about 50%. For the same molecule, the viable cells with soybean suspension cells (1 mM colchicine) is on record as 44.8%. In addition, the “concentration in culture medium for cell separation” value in the data set on soybean suspension cells is 0.1 to 1.0 mM.
